According to patent US5994356A, “Carboxylic acid derivatives, medicaments comprising these compounds, their use and processes for their production” (priority 1996, dated 1999):
Where a name gives a salt, the structure may show the parent alone.

Legend:
human platelets = assay: Inhibition of the binding of ^3 H-BIBU 52 to human platelets (fibrinogen binding test); details: human platelets in plasma; ^3 H-BIBU 52 5 nM; room temperature, 20 minutes
Experimental: 1. Inhibition of the binding of ^3 H-BIBU 52 to Human Platelets
The free and bound ligand is separated by centrifugation and determined quantitatively by scintillation counting. From the measurements, the inhibition of ^3 H-BIBU 52 binding by the test substance is determined.
To do this, donor blood is taken from an antecubital vein and anticoagulated with trisodium citrate (final concentration 13 mM). The blood is centrifuged at 170×g for 10 minutes and the supernatant platelet-rich plasma (PRP) is removed. The residual blood is rapidly centrifuged once more to obtain plasma. The PRP is diluted 1:10 with autologous plasma. 750 μl are incubated with […] of physiological saline solution, 100 μl of test substance solution, 50 μl of ^14 C-sucrose (3700 Bq) and 50 μl of ^3 H-BIBU 52 (final concentration: 5 nM) at room temperature for 20 minutes. To measure the non-specific binding, instead of the test substance, 100 μl of BIBU 52 (final concentration: 30 μM) is employed. The samples are centrifuged at 10,000×g for 20 seconds and the supernatant is removed. 100 μl thereof are measured to determine the free ligand. The pellet is dissolved in 500 μl of 0.2N NaOH, and 450 μl are mixed with 2 ml of scintillator and 25 μl of 5N HCl and measured. The residual plasma still remaining in the pellet is determined from the ^14 C content, the bound ligand from the ^3 H measurement.

platelet aggregation = assay: Antithrombotic action: collagen-induced platelet aggregation in platelet-rich plasma (Born and Cross); type: cell-based; details: Homo sapiens, 10 min, platelet-rich plasma of healthy subjects, incubated 10 minutes at 37° C., 50% change in optical density, read-out: Inhibition of platelet aggregation EC50
Experimental: 2. Antithrombotic Action Methodology Platelet aggregation is measured according to the method of Born and Cross (J. Physiol. 170, 397 (1964)) in platelet-rich plasma of healthy subjects. To inhibit clotting, the blood is treated with sodium citrate 3.14% in the volume ratio 1:10. Collagen-induced Aggregation The course of the decrease in the optical density of the platelet suspension is measured photometrically and recorded after addition of the aggregation-inducing substance. From the angle of inclination of the density curve, the aggregation rate is deduced. The point on the curve at which the greatest light transmission is present serves for the calculation of the optical density. The amount of collagen is chosen to be as low as possible, but of course such that an irreversibly running reaction curve results. Commercially available collagen from Hormonchemie, Munich is used. Before the addition of collagen, the plasma is incubated at 37° C. with the substance for 10 minutes in each case. From the measured values obtained, an EC50 which relates to a 50% change in the optical density in the sense of an inhibition of aggregation is determined graphically.

[1] = Plasma levels in Rhesus monkeys after oral administration; type: in vivo; details: 1 mg/kg

For `O=C(O)COc1ccc(N2CCN(CCC3CCNCC3)CC2=O)cc1` [1(1), 1-(4-Carboxymethyloxyphenyl)-4-[2-(piperidin-4-yl)ethyl]piperazin-2-onedihydrochloride], which IC50 (human platelets) is on record?
Its IC50 is 360 nM.

What about the EC50 (platelet aggregation) of the same compound?
Its EC50 is 370 nM.

With `CC(C)COC(=O)COc1ccc(N2CCN(CCC3CCNCC3)CC2)cc1OCC(=O)OCC(C)C` [9(1), 1-[3,4-Di(isobutyloxycarbonylmethyloxy)phenyl]-4-[2-piperidin-4-yl)ethyl]piperazine dihydrochloride] as the compound, how does the “period of high plasma levels” value [1] read?
Its value is “more than 8 hours”.

For `Cl.Cl.O=C(COc1ccc(N2CCN(CCC3CCNCC3)CC2)cc1OCC(=O)OC1CCCCC1)OC1CCCCC1` [9(2), 1-[3,4-Di(cyclohexyloxycarbonylmethyloxy)phenyl]4-[2-(piperidin-4-yl)ethyl]piperazine dihydrochloride], which “period of high plasma levels” value [1] is on record?
Its value is “more than 8 hours”.

With `O=C(O)C(Oc1ccc(N2CCN(CCC3CCNCC3)CC2)cc1)c1ccccc1` (stereo not drawn) [7(6), 1-[4-(1-Carboxybenzyloxy)phenyl]-4-[2-(piperidin-4-yl)ethyl]piperazine dihydrochloride] as the compound, how does the IC50 (human platelets) read?
Its IC50 is 150 nM.

For `CN(CC1CCNCC1)[C@H]1CC[C@H](c2ccc(OCC(=O)O)cc2)CC1` [1(22), trans-1-(4-Carboxymethyloxyphenyl)-4-[(piperidin-4-yl)-N-methylmethylamino]cyclohexane dihydrochloride], which IC50 (human platelets) is on record?
The IC50 was 260 nM.

What about the EC50 (platelet aggregation) of the same compound?
The EC50 was 370 nM.

With `CC1CN(CCC2CCNCC2)CCN1c1ccc(OCC(=O)O)cc1` (stereo not drawn) [1(7), 1-(4-Carboxymethyloxyphenyl)-2-methyl-4-[2-(piperidin-4-yl)ethyl]piperazine dihydrochloride] as the compound, how does the IC50 (human platelets) read?
The IC50 was 260 nM.

And the EC50 (platelet aggregation)?
Its EC50 is 240 nM.

With `COC(=O)COc1ccc(N2CCN(CCC3CCNCC3)CC2C)cc1.Cl.Cl` (stereo not drawn) [2(4), 1-(4-Methoxycarbonylmethyloxyphenyl)-2-methyl-4-[2-(piperidin-4-yl)ethyl]piperazine dihydrochloride] as the compound, how does the “period of high plasma levels” value [1] read?
Its value is “more than 8 hours”.

For `O=C(O)COc1ccc(N2CCN(CCC3CCNCC3)CC2)cc1` [Example 1, 1-(4-Carboxymethyloxyphenyl)-4-[2-(piperidin-4-yl)ethyl]piperazine dihydrochloride], which IC50 (human platelets) is on record?
Its IC50 is 150 nM.

And the EC50 (platelet aggregation)?
The EC50 was 120 nM.

For `COC(=O)COc1ccc(N2CCN(CCC3CCNCC3)CC2)cc1.Cl.Cl` [Example 2, 1-(4-Methoxycarbonylmethyloxyphenyl)-4-[2-(piperidin-4-yl)ethyl]piperazine dihydrochloride], which “period of high plasma levels” value [1] is on record?
Its value is “more than 8 hours”.

Which IC50 (human platelets) does the source give for `O=C(O)CO[C@H]1CC[C@H](N2CCN(CCC3CCNCC3)CC2=O)CC1` [7(1), 1-(trans-4-Carboxymethyloxycyclohexyl)-4-[2-(piperidin-4-yl)ethyl]piperazin-2-one] here?
Its IC50 is 200 nM.

And the EC50 (platelet aggregation)?
Its EC50 is 250 nM.

For `O=C(O)COc1ccc(N2CCN(CCC3CCNCC3)CC2)cc1OCC(=O)O` [1(3), 1-[3,4-Di(carboxymethyloxy)phenyl]-4-[2-(piperidin-4-yl)ethyl]piperazine d ihydrochloride], which IC50 (human platelets) is on record?
The IC50 was 47 nM.

What about the EC50 (platelet aggregation) of the same compound?
The EC50 was 110 nM.

Which “period of high plasma levels” value [1] does the source give for `CCOC(=O)COc1ccc(N2CCN(CCC3CCNCC3)CC2)cc1OCC(=O)OCC.Cl.Cl` [Example 9, 1-[3,4-Di(ethoxycarbonylmethyloxy)phenyl]-4-[2-(piperidin-4-yl)ethyl]piperazine dihydrochloride] here?
Its value is “more than 8 hours”.
